# According to patent US8293895B2, “Carbapenem derivatives” (KBP Biosciences Co., Ltd., priority 2007, dated 2012):
# Tests used:
# [1] = system: methicillin-sensitive Staphylococcus epidermidis (MSSE); test: In vitro antimicrobial activity, agar dilution method; assay type: cell-based; conditions: MSSE clinical isolates
# Excerpt: (§1) Bacterial strains for test: All the bacterial strains are obtained from clinic/hospital and purchased from public organizations. (1) Gram-positive bacteria: methicillin-sensitive Staphylococcus aureus (MSSA), methicillin-resistant Staphylococcus aureus (MRSA), methicillin-resistant Staphylococcus epidermidis (MRSE), methicillin-sensitive Staphylococcus epidermidis (MSSE), penicillin-sensitive Streptococcus pneumoniae (PSSP), penicillin-resistant Streptococcus pneumoniae (PRSP); (2) Gram-negative bacteria: Escherichia coli (products from ESBLs), Klebsiella pneumonia, Pseudomonas aeruginosa. Drugs to be tested: Compound A-E, self-made as described above; Control drugs: Meropenem (Meropenem for injection), Ertapenem (Ertapenem for injection), commercially available. Experimental Method: the agar dilution method, by reference to Methodology of Pharmacological Experiment (XU Shuyun et al, published by the Peoples Medical Publishing House, 1st Edition, August, 1982; 3rd Edition, 5th printing, January 2002, p 1659-1660).
# klebsiella pneumonia = test: as above; assay type: cell-based; conditions: Klebsiella pneumoniae, klebsiella pneumonia clinical isolates
# Excerpt: as §1
# [2] = system: methicillin-resistant Staphylococcus aureus (MRSA); test: as above; assay type: cell-based; conditions: MRSA clinical isolates
# Excerpt: as §1
# [3] = system: methicillin-resistant Staphylococcus epidermidis (MRSE); test: as above; assay type: cell-based; conditions: MRSE clinical isolates
# Excerpt: as §1
# [4] = system: methicillin-sensitive Staphylococcus aureus (MSSA); test: as above; assay type: cell-based; conditions: MSSA clinical isolates
# Excerpt: as §1
# [5] = system: penicillin-resistant Streptococcus pneumoniae (PRSP); test: as above; assay type: cell-based; conditions: PRSP clinical isolates
# Excerpt: as §1
# [6] = system: penicillin-sensitive Streptococcus pneumoniae (PSSP); test: as above; assay type: cell-based; conditions: PSSP clinical isolates
# Excerpt: as §1
# pseudomonas aeruginosa = test: as above; assay type: cell-based; conditions: pseudomonas aeruginosa clinical isolates
# Excerpt: as §1
# serratia marcescens = test: as above; assay type: cell-based; conditions: serratia marcescens clinical isolates
# [7] = In vivo pharmacokinetics of SD rat
# Description: Drugs to be Tested and Preparation Thereof
# Drugs to be tested: partial compounds of the present invention, self-synthesized as described above.
# Control drugs: Ertapenem (Ertapenem for Injection), commercially available.
# Internal standard substance: Warfarin, white powder, purity: 99%, batchnumber: 0072-8501, provided by Shanghai Institute for Drug Control.
# Drug formulation: being dissolved in physiological saline to make the final concentration to be 5 mg/mL for intravenous injection and formulated before administration.
# Test animal: SD male rats, weight: 200˜250 g, purchased from SHANGHAI SLAC LABORATORY ANIMAL CO. LTD.
# Administration of the drugs to be tested: The SD male rats were randomly divided into five groups, 3 in each group, administrated by intravenous injection in an amount of 10 mg/kg; and weighted before administration.
# Collection of Samples: Zero time was marked before administration; 0.5 mL of blood was respectively sampled from orbit venous plexus at 5 min, 15 min, 30 min, 45 min, 1 h, 2 h, 4 h, 6 h, 8 h, 24 h after administration into heparinized centrifuge tubes. The samples were centrifuged for 6 minutes at 8000 rpm and the supernatant plasma was separated. The plasma was freezed at −20° C. for LC-MS/MS analysis. Establishing liquid chromatography-mass spectrometry (LC-MS) methodology: Chromatographic conditions: chromatographic column. Gemini C6-Phenyl (50 mm×4.6 mm, 5 μm), mobile phase: 0.1% of formic acid-water-acetonitrile (5:35:60, v/v/v); flow rate: 1 mL/min; column temperature: 35-40° C., injection volume: 5 μL; split ratio: 1/5. Mass spectrometer conditions: scanning pattern: cation multiple reactions monitoring (MRM); ion source: electrospray ionization (ESI); Nebulize gas: 8 L/min; Curtain gas: 8 L/min; Collision gas: 4 L/min; Ionspray voltage: 4500 v; Temperature: 400° C./500° C. Preparation of the Standard Curve and Quality-Control Sample: a Suitable Amount of the drug to be tested was weighted precisely and then formulated into a stock solution (2.6 mg/mL) with ultrapure water. The stock solution was diluted with methanol to obtain a series of working solutions in a concentration of 25000, 5000, 2500, 500, 250 and 50 ng/mL respectively. 100 μL of plasma samples were respectively added into 20 μL of said working solutions to obtain the calibrated solutions in a concentration of […]. By the same method, the quality-controlled sample solutions in a concentration of 4000, 800 and 20 ng/mL can be prepared. A standard curve was obtained by chromatographic analysis of the sample. Methods for handling of sample: 20 μL of acetonitrile and 200 μL (200 ng/mL) Warfarin in acetonitrile were added into 100 μL of plasma sample, then spun for 1 minute and centrifuged for 5 minutes at 15000 rpm. 100 μL of the supernatant was taken, where 3 μL was used for the LC/MS/MS analysis. Results and Discussions: Concentration to be administered: The formulated drugs were determined using HPLC, and compared with the standard to obtain that the accuracy of the concentration of the drug solution administered by intravenous injection was 103.2%. Data analysis: The drug concentration in plasma would be considered as zero if under detectable limit (10 ng/mL). The pharmacokinetics parameters were calculated by the non-compartment model using Winnonlin Professional 5.2 pharmacokinetics software. Pharmacokinetics: The pharmacokinetics parameters and drug-time curve were obtained by measuring the plasma drug concentration at different time points. The half lives (t1/2) of the tested compounds were summarized in Table 3, wherein the half lives of the compounds of the present invention in rats (intravenous injection) were longer than those of Meropenem and Ertapenem.
# proteus mirabilis = test: In vitro antimicrobial activity, agar dilution method; assay type: cell-based; conditions: proteus mirabilis clinical isolates
# [8] = SD male rats, intravenous injection 10 mg/kg, plasma, X ± SD
"Half lives t1/2 ([7]; rat, in vivo, iv, 10 mg/kg) [min]",SMILES,MIC90 [1] [µg/mL],MIC90 (klebsiella pneumonia) [µg/mL],MIC90 [2] [µg/mL],MIC90 [3] [µg/mL],MIC90 [4] [µg/mL],MIC90 [5] [µg/mL],MIC90 [6] [µg/mL],MIC90 (pseudomonas aeruginosa) [µg/mL],MIC90 (serratia marcescens) [µg/mL],"Half lives t1/2 [7, 8] [min]",MIC90 (proteus mirabilis) [µg/mL]
,"C[C@@H](O)[C@H]1C(=O)N2C(C(=O)O)=C(S[C@@H]3CN[C@H](C(=O)NCc4ccco4)C3)[C@H](C)[C@H]12 [Compound A, (4R,5S,6S)-3-[(2S,4S)-2-formyl[[furan-2-ylmethyl]amino]pyrrolidine-4-yl]thio-6-[(1R)-1-hydroxyethyl]-4-methyl-7-oxo-1-aza-bicyclo[3.2.0] hept-2-ene-2-carboxylic acid]",0.125,0.125,32,1,0.125,0.5,0.008,64,0.063,21 ± 2.4,0.063
,"C[C@@H](O)[C@H]1C(=O)N2C(C(=O)O)=C(S[C@@H]3CN[C@H](C(=O)NCc4ccc(C(=O)O)o4)C3)[C@H](C)[C@H]12 [Compound B, (4R,5S,6S)-3-[(2S,4S)-2-formyl[[furan-2-carboxy-5-ylmethyl]amino]-pyrrolidine-4-yl]thio-6-[(1R)-1-hydroxyethyl]-4-methyl-7-oxo-1-aza-bicyclo[3.2.0]hept-2-ene-2-carboxylic acid]",0.25,0.5,64,2,0.25,1,0.008,32,0.063,43.2 ± 1.8,0.063
,"C[C@@H](O)[C@H]1C(=O)N2C(C(=O)O)=C(S[C@@H]3CN[C@H](C(=O)NCc4ccc(CC(=O)O)o4)C3)[C@H](C)[C@H]12 [Compound C, (4R,5S,6S)-3-[(2S,4S)-2-formyl[[furan-2-carboxymethyl-5-ylmethyl]amino]pyrrolidine-4-yl]thio-6-[(1R)-1-hydroxyethyl]-4-methyl-7-oxo-1-aza-bicyclo[3.2.0]hept-2-ene-2-carboxylic acid]",0.25,0.5,64,1,0.25,0.5,0.016,32,0.063,46.8 ± 1.8,0.063
,"C[C@@H](O)[C@H]1C(=O)N2C(C(=O)O)=C(S[C@@H]3CN[C@H](C(=O)NCc4cc(C(=O)O)co4)C3)[C@H](C)[C@H]12 [Compound D, (4R,5S,6S)-3-[(2S,4S)-2-formyl[[furan-3-carboxy-5-ylmethyl]amino]-pyrrolidine-4-yl]-thio-6-[(1R)-1-hydroxyethyl]-4-methyl-7-oxo-1-aza-bicyclo[3.2.0]hept-2-ene-2-carboxylic acid]",0.125,0.125,32,2,0.25,1,0.008,64,0.063,19.8 ± 1.2,0.063
,"C[C@@H](O)[C@H]1C(=O)N2C(C(=O)O)=C(S[C@@H]3CN[C@H](C(=O)NCc4ccc(S(N)(=O)=O)o4)C3)[C@H](C)[C@H]12 [Compound E, (4R,5S,6S)-3-[(2S,4S)-2-formyl[[furan-2-sulphonylamino-5-ylmethyl]amino]-pyrrolidine-4-yl]thio-6-[(1R)-1-hydroxyethyl]-4-methyl-7-oxo-1-aza-bicyclo[3.2.0]hept-2-ene-2-carboxylic acid]",0.125,0.5,64,2,0.25,2,0.008,32,0.063,41.4 ± 2.4,0.063
36 ± 1.8,"C[C@@H](O)[C@H]1C(=O)N2C(C(=O)O)=C(S[C@@H]3CN[C@H](C(=O)Nc4cccc(C(=O)O)c4)C3)[C@H](C)[C@H]12 [Ertapenem, reference compound]",0.25,1,> 64,2,0.5,2,0.016,> 64,0.125,,0.063
,"C[C@@H](O)[C@H]1C(=O)N2C(C(=O)O)=C(S[C@@H]3CN[C@H](C(=O)N(C)C)C3)[C@H](C)[C@H]12 [Meropenem, reference compound]",0.125,0.5,64,2,0.25,1,0.008,32,0.063,6.6 ± 1.2,0.063
